Peptide text beside a SMILES is read from it. * marks the point of attachment. X1 = O=C1c2cccc(O)c2C(=O)c2c(O)cc(C(=O)*)cc21
Tests used:
R28 cells [1] = assay: Safety evaluation under normoxic conditions (ATP and LDH); type: cell-based; details: 24 h
Experimental: (§1) The retinal precursor cell line R28 was purchased from Kerafast (Boston, MA, USA) and cultured according to the procedures recommended by the supplier. Briefly, the cells were grown and maintained in DMEM complete medium containing 420 mL DMEM, 15 mL sodium bicarbonate (Sigma‐Aldrich, St. Louis, MO, USA), 50 mL calf serum, 5 mL MEM non‐essential amino acids, 5 mL L‐glutamine (GIBCO, Grand Island, NY, USA), and 0.625 mL Gentamicin (80 mg mL^−1; Solarbio Life Sciences Co., Ltd, Beijing, China) at 37 °C in a humidified atmosphere containing 5% CO2. The stock solutions of Rh‐GFFYE and control compounds were diluted to varying concentrations with DMEM complete medium just before cell treatment.
An in vitro OGD model was constructed based on the method detailed by Ryou et al.^[ [56] ^] Briefly, R28 cells were cultured in a glucose‐free medium and subjected to hypoxia (1% O2, 5% CO2) for 24 h. The cells were then re‐oxygenated (21% O2, 5% CO2) for 6 h to simulate RIR. The ATP levels were measured using a CellTiter‐Lumi Plus luminescent cell viability assay (Beyotime, Beijing, China). The cell membrane integrity of the R28 cells was evaluated by LDH release assay (Beyotime, Beijing, China).

[2] = In vivo retinal distribution by CLSM (Cy5.5 label); design: species or system rat
Description: To evaluate the distribution of Rh‐GFFYE in RIR‐injured and normal retinas, rats were divided into two groups. At 3, 7, 14, and 21 days after a single intravitreal injection of Cy5.5‐Rh‐GFFYE, the rats were killed and retinas were obtained. Retinal cryosections and retinal whole flat mounts were examined by CLSM to observe the distribution of Rh‐GFFYE in vivo.

[3] = Concentration of rhein in retinas by UPLC-MS/MS; type: in vivo, rat
Experimental: To further evaluate the concentration of rhein in retinas, the retinas were collected at 7 and 21 days after a single intravitreal injection of Rh‐GFFYE. The retinas were homogenized using a cryogenic homogenizer (ServiceBio, Wuhan, China), and the supernatants were collected after centrifugation for further analysis. The samples were suspended in ethyl acetate and centrifuged for 5 min to obtain the supernatants which were then dried under nitrogen gas flow. The residues were dissolved with mobile phase solution and then quantified using the UPLC‐MS/MS (AB Sciex Triple Quad TM 4500 system, MA, USA) assay.

rat model of RIR injury [4] = details: in vivo
Experimental: Prior to establishing the model, each anesthetized rat was administered with 0.3% ofloxacin eye drops. Topyramide eye solution was used to dilate the pupil, and proparacaine hydrochloride was used as an eye anesthetic. A 30‐gauge needle containing a balanced salt solution was cannulated into the anterior chamber. […] The sham operation, which served as the control, was performed without elevating the IOP. After 60 min, the needle was withdrawn, the IOP was normal, the posterior segment was pale, and the blood supply was restored, confirming the successful establishment of the RIR injury model. […] During the experiment, each animal's body temperature was kept between 36.5 and 37°C.
At 24 h after establishing the RIR injury model, the rats were randomly divided into five groups: Sham, Saline, Rh‐GFFYE, Ac‐GFFYE, and Nap‐GFFYE. The methods for anesthesia and pupil dilation were the same as described above. Intravitreal injection was accomplished using a Hamilton syringe, and 4 µL of Rh‐GFFYE was injected to obtain a final rhein concentration of 20 µM in the vitreous humor.^[ [58] ^]
Before ERG recording, all the rats were randomly divided into five groups (Sham, Saline, Nap‐GFFYE, Ac‐GFFYE, and Rh‐GFFYE) and adapted in the dark for 12 h. […] For scotopic ERG, the responses to white flashes of 3.00 cd∙s∙m^−2 were recorded. […]

[5] = In vivo safety evaluation after intravitreal injection; design: species or system rat
Description: For safety evaluation, rats were intravitreally injected Rh‐GFFYE nanofibers. 7 days after injection, ERG was used to detect the retinal function and H&E staining was used to detect the morphology of retina. Orbital blood was taken to detect the contents of ALT and AST in plasma. The major organs (heart, liver, spleen, lung, kidney) were harvested for H&E staining to observe changes in each major organ.

R28 cells [6] = assay: In vitro OGD model, cellular ATP content (CellTiter-Lumi Plus); type: cell-based; details: 24 h pretreatment, varying concentrations (Rh-GFFYE 10, 20, 40 µM); n = 3
Experimental: as §1
An in vitro OGD model was constructed based on the method detailed by Ryou et al.^[ [56] ^] Briefly, R28 cells were cultured in a glucose‐free medium and subjected to hypoxia (1% O2, 5% CO2) for 24 h. […] The ATP levels were measured using a CellTiter‐Lumi Plus luminescent cell viability assay (Beyotime, Beijing, China). The cell membrane integrity of the R28 cells was evaluated by LDH release assay (Beyotime, Beijing, China).

[7] = test system: bone marrow‐derived macrophages (BMDMs); assay: LPS-induced cytokine release, ELISA; type: cell-based, mouse; details: 20 µM, LPS 100 ng/mL, 24 h
Experimental: The isolation of mouse BMDMs was performed according to the method of Pineda‐Torra et al.^[ [57] ^] Briefly, the femurs and tibias of C57BL/6 mice were carefully separated and transferred into PBS containing 10% penicillin/streptomycin. The BMDMs were flushed out with a syringe and filtered through a 70‐µm strainer. To further purify the BMDMs, lysis buffer was added to remove the red blood cells. The BMDMs were cultured in a DMEM medium containing macrophage colony‐stimulating factor (MCE, Monmouth Junction, NJ, USA).
BMDMs (1 × 10^5 mL^−1 cells in a volume of 1 mL per well in a 24‐well plate) were pretreated with Rh‐GFFYE, rhein, Nap‐GFFYE, and Ac‐GFFYE at a concentration of 20 µM for 1 h prior to the addition of LPS (100 ng mL^−1) for the specified times (6, 24, and 48 h). The supernatants were collected, and the concentrations of IL‐1β and IL‐6 in the culture medium were measured using ELISA kits (Beyotime, Beijing, China) according to the manufacturer's instructions.

R28 cells [8] = assay: Mitochondrial membrane potential, JC-1 staining after OGD; type: cell-based; details: 20 µM, 24 h prior to OGD; JC-1, CLSM
Experimental: A mitochondrial membrane potential assay kit with JC‐1 (Beyotime, Beijing, China) was used to monitor the changes in the mitochondrial membrane potential of R28 cells subjected to OGD following the procedure recommended by the supplier. Briefly, R28 cells were seeded in dishes at a density of 1 × 10^5 mL^−1 cells and cultured overnight. The cells were treated with Rh‐GFFYE, rhein, Nap‐GFFYE, or Ac‐GFFYE at a concentration of 20 µM for 24 h prior to OGD. Following treatment and recovery, the cells were washed three times with PBS and then incubated with 20 µM JC‐1 for 20 min at 37 °C. After removing the JC‐1 staining solution, the cells were washed three times with JC‐1 dyeing buffer, and 2 mL DMEM was added for CLSM imaging.

[9] = pH between 8.0 and 9.4; cited from earlier work
Description: Herb‐derived natural products are regarded as promising drug resources due to their anti‐inflammatory and antioxidant effects.^[ [11] ^] Rhein (4,5‐dihydroxyanthraquinone‐2‐carboxylic acid), is an anthraquinone and one of the pharmacologically active components extracted from Rheum.^[ [12] ^] […] Due to its good anti‐apoptotic and anti‐inflammatory effects, rhein has also been used to treat ischemia/reperfus ...

R28 cells [10] = assay: Intracellular ROS, H2DCF-DA staining after OGD; type: cell-based; details: 20 µM, 24 h before OGD, CLSM
Experimental: R28 cells were seeded at a density of 1 × 10^5 mL^−1 cells in 35‐mm glass‐bottom Petri dishes and incubated overnight. Before OGD injury, the cells were treated with Rh‐GFFYE, rhein, Nap‐GFFYE, or Ac‐GFFYE at a concentration of 20 µM for 24 h. The OGD‐injured cells were then assayed for intracellular ROS production by H2DCF‐DA staining. Briefly, the cells were treated with 10 µM H2DCF‐DA for 30 min in the cell culture incubator. To remove the unincorporated dye, the cells were washed with PBS and the oxidation of H2DCF‐DA was detected by CLSM.

rat model of RIR injury [11] = assay: Rat RIR injury model, immunofluorescence of RGC markers (BRN3A, β‐III‐TUBULIN); type: in vivo; details: 7 d after intravitreal injection; n = 6
Experimental: (§2) Erythromycin eye ointment was used to prevent bacterial infection.
The RIR‐injured rats were euthanized at 7 days after the intravitreal injection of Rh‐GFFYE. Immediately after removal, the eyeball was fixed in 4% paraformaldehyde for 2 h at 4 °C, dehydrated overnight in 30% sucrose solution, embedded in an optimal cutting temperature compound embedding bottom box (17 × 17 × 5 mm), and stored at −80 °C. Slices with thicknesses of 8 µm were created using a frozen slicer at −22 °C. The slices were placed on adhesive slides and dried at room temperature for >30 min before proceeding to the next step. For immunofluorescent staining, the retinal sections were permeabilized with enhanced immunostaining permeabilization buffer (Beyotime, Beijing, China) for 20 min, blocked with blocking buffer (Beyotime, Beijing, China), and incubated overnight at 4 °C with the following primary antibodies: anti‐β‐III‐TUBULIN, anti‐IBA1, anti‐GFAP, anti‐BRN3A (Abcam, UK), anti‐CD86, and anti‐CD206 (Cell Signaling Technology, Danvers, MA, USA). After rinsing three times with PBS, the sections were incubated with secondary antibodies at room temperature for 2 h, rinsed three times with PBS, and counterstained with DAPI. Sealed with a cover glass, the slides were then observed by CLSM.

rat model of RIR injury [12] = assay: Rat RIR injury model, H&E staining of the retina; type: in vivo; details: intravitreal 4 µL, 20 µM final in vitreous, 24 h after RIR; 7 days; n = 6
Experimental: as §2
The changes in retinal morphology caused by RIR injury were visualized by H&E staining. At 7 days after the intravitreal injection of Rh‐GFFYE, the eyeballs were removed and then fixed in 4% paraformaldehyde. The eye tissue was then embedded in paraffin, and 4‐µm‐thick slices were prepared. The H&E staining procedure described previously was followed.^[ [59] ^]

[13] = day 7 after single intravitreal injection of Rh-GFFYE, retina homogenate
[14] = 7 days after intravitreal injection, n = 6

Compound | toxicity on R28 cells (ATP and LDH levels) (R28 cells [1]) | uptake in ischemic retina compared with control non‐ischemic eyes [2] | concentration of rhein in retina at 21 d relative to day 7 ([3]; 21 d after single intravitreal injection) | concentration of rhein in the ischemic retina [3, 13] [ng/g] | concentration of rhein in the normal retina [3, 13] [ng/g] | amplitudes of the oscillatory potentials (OPs) (rat model of RIR injury [4]) | scotopic ERG a and b wave amplitudes (rat model of RIR injury [4]) | morphology of the retina (H&E) ([5]; 7 d after intravitreal injection) | retinal function (ERG) of normal rats ([5]; 7 d after intravitreal injection, vs normal group, n = 6) | serum content of alanine aminotransferase (ALT) [5, 14] | serum content of aspartate aminotransferase (AST) [5, 14] | histological structures of main visceral organs (heart, liver, spleen, lung, kidney) ([5]; H&E, 7 days after intravitreal injection) | recovery of cell viability (ATP content) under OGD (R28 cells [6]) | anti‐inflammatory effect (release of IL‐1β and IL‐6) [7] | mitochondrial membrane potential (ΔΨm) under OGD (R28 cells [8]) | concentration at which rhein self‐assembles into a translucent hydrogel [9] [µM] | intracellular ROS level under OGD (R28 cells [10]) | number of RGCs (BRN3A positive) compared with Saline group (rat model of RIR injury [11]) | IPL thickness after RIR injury (rat model of RIR injury [12])
O=C(O)CC[C@H](NC(=O)[C@H](Cc1ccc(O)cc1)NC(=O)[C@H](Cc1ccccc1)NC(=O)[C@H](Cc1ccccc1)NC(=O)CNC(=O)c1cc(O)c2c(c1)C(=O)c1cccc(O)c1C2=O)C(=O)O [Rh‐GFFYE] (X1-GFFYE-OH) | no toxic effect | increased | approximately one‐quarter of that at day 7 | 27.1 | 15.2 | recovered | significant recovery | no significant change | not significantly changed | did not show intergroup differences | did not show intergroup differences | did not induce noticeable histological changes |  |  |  |  |  |  | 
O=C(O)c1cc(O)c2c(c1)C(=O)c1cccc(O)c1C2=O [rhein, 4,5‐dihydroxyanthraquinone‐2‐carboxylic acid] |  |  |  |  |  |  |  |  |  |  |  |  | no restorative effect | reduced the release of these two inflammatory cytokines to some extent | recovered | 14100 | significant ROS inhibition |  | 
Nap‐GFFYE [control peptide compound in which rhein is replaced with 1‐naphthylacetic acid (Nap)] |  |  |  |  |  |  |  |  |  |  |  |  | no restorative effect | did not show anti‐inflammatory effects | no recovery |  |  | No significant differences | did not ameliorate

Source: article PMC10602545, “Retinal Microenvironment‐Protected Rhein‐GFFYE Nanofibers Attenuate Retinal Ischemia‐Reperfusion Injury via Inhibiting Oxidative Stress and Regulating Microglial/Macrophage M1/M2 Polarization” (Advanced Science, 2023)
